Converted amounts (≈) assume the structure as drawn. Blank lines part the entries; values can stand above or below the compound they belong to. Where a SMILES comes first, the peptide text is derived from it. [ ]: non-standard residue; d: D form. Phe(ol) = N[C@H](CO)Cc1ccccc1; Aib = CC(C)(N)C(=O)O
Key:
[1] = system: MRSA T144; test: Antibacterial test, broth microdilution; assay type: cell-based, methicillin-resistant Staphylococcus aureus; settings: Staphylococcus aureus
[2] = system: MRSA 1530 (cfr); test: Antibacterial test, broth microdilution; assay type: cell-based, methicillin-resistant Staphylococcus aureus; settings: Staphylococcus aureus
[3] = system: S. simulans 4; test: Antibacterial test, broth microdilution; assay type: cell-based; settings: Staphylococcus simulans
[4] = system: MRSA T144; test: Galleria mellonella infection model; assay type: in vivo; settings: MRSA T144 5.0 × 10^6 CFUs; 10 mg/kg at 1 h post-infection; n = 7
[5] = system: S. aureus ATCC 29213; test: Antibacterial test, broth microdilution; assay type: cell-based, Staphylococcus aureus; settings: Fig. S5
[6] = read-out: KD with PG; cited from earlier work

Compound: CN[C@H](CC(C)C)C(=O)N[C@H]1C(=O)N[C@@H](CC(N)=O)C(=O)N[C@H]2C(=O)N[C@H]3C(=O)N[C@H](C(=O)N[C@H](C(=O)O)c4cc(O)cc(O)c4-c4cc3ccc4O)[C@H](O)c3ccc(c(Cl)c3)Oc3cc2cc(c3O[C@@H]2O[C@H](CO)[C@@H](O)[C@H](O)[C@H]2O[C@H]2C[C@](C)(N)[C@H](O)[C@H](C)O2)Oc2ccc(cc2Cl)[C@H]1O [Vancomycin]
- MIC [1]: 1 µg/mL (≈ 0.69 µM)
- MIC [2]: 1 µg/mL (≈ 0.69 µM)
- MIC [3]: 1 µg/mL (≈ 0.69 µM)
- Bacterial loads in G. mellonella larvae [4]: decreased bacterial loads

- MIC [5]: 16 µg/mL (≈ 8.15 µM)
Compound: CC(=O)NC(C)(C)C(=O)N1CCC[C@H]1C(=O)NC(C)(C)C(=O)N[C@@H](C)C(=O)NC(C)(C)C(=O)N[C@@H](C)C(=O)N[C@@H](CCC(N)=O)C(=O)NC(C)(C)C(=O)N[C@H](C(=O)NC(C)(C)C(=O)NCC(=O)N[C@@H](CC(C)C)C(=O)NC(C)(C)C(=O)N1CCC[C@H]1C(=O)N[C@H](C(=O)NC(C)(C)C(=O)NC(C)(C)C(=O)N[C@@H](CCC(=O)O)C(=O)N[C@@H](CCC(N)=O)C(=O)N[C@H](CO)Cc1ccccc1)C(C)C)C(C)C [alamethicin] (Ac-[Aib]P[Aib]A[Aib]AQ[Aib]V[Aib]GL[Aib]PV[Aib][Aib]EQ[Phe(ol)]; N-terminus assumed)

Compound: daptomycin
- Kd [6]: 3.1 µM

Source: article PMC12145052 (Acta Pharmaceutica Sinica. B, 2025)
